# Data from paper PMC8070745, “FEN1 Blockade for Platinum Chemo-Sensitization and Synthetic Lethality in Epithelial Ovarian Cancers” (Cancers, 2021).
# Assays:
# A2780cis cells [1] = test: Neutral COMET assay, A2780cis; assay type: cell-based, human; settings: combination with cisplatin vs cisplatin or FEN1i monotherapy
# Experimental: (1:200, ab26343). Infrared dye-labelled secondary antibodies (Li-Cor) [IRDye 800CW Donkey Anti-Rabbit IgG and IRDye 680CW Donkey Anti-Mouse IgG] were incubated at a dilution of 1:10000 for 1 h. Membranes were scanned with a LiCor Odyssey machine (700 and 800 nm) to determine protein expression. ß-Tubulin or ß-actin was used as a loading controls for the whole cell lysates. GADPH and YYI were used as loading controls to cytoplasmic and nuclear fractions, respectively. First incubation was with FEN1 antibody and then imaged. This was followed by incubation with loading control and then imaged for analysis. Bar charts show means of optical density (O.D.) ± S.D and all data is representative of at least three independent experiments. qRT-PCR analysis of FEN1 gene expre ssion: RNA was extracted using the RNeasy Mini Kit (74104, Qiagen) and quantified using a Nanodrop 2000c (Thermo Fisher Scientific). cDNA synthesis was performed using the RT2 First Strand Kit (330404, Qiagen). Real time PCR was carried out on an Applied Biosystems […] FAST cycler.
# Neutral COMET assay: 1.0x10^5 cells per well were seeded in 6 well tissue culture plates and incubated at 37°C and 5% CO2 overnight. […] Fifty comets were scored per sample using Comet Assay III/IV image analysis software (Perceptive Instruments, Bury St Edmonds, UK). […]
# FEN1 = system: FEN1; parameters: method as in PMID 21062821; settings: read-out: IC50 for FEN1 inhibition; cited from earlier work
# [2] = system: XRCC1 deficient A2780cis cells; test: FEN1 inhibitor cytotoxicity, XRCC1 deficient A2780cis; assay type: cell-based, human; settings: vs A2780cis control
# PEO1 cells = test: Annexin V apoptosis detection, PEO1; assay type: cell-based, human; settings: FEN1i monotherapy
# Experimental: Apoptosis detection: Annexin V detection kit (556547, BD Biosciences) was used to quantify apoptotic cells. Briefly, cells were trypsinized, washed with PBS and the cellular pellet was re-suspended in Anexin Binding Buffer (1×). Following, FITC Anexin V and Propidium Iodide were added to the cells. After incubation, Anexin binding Buffer (1×) was added to each tube. All the samples were analysed on a Beckman-Coulter FC500 flow cytometer. The percentage of apoptotic cells was determined (late apoptotic = FITC-Annexin V positive, PI positive early apoptotic = FITC-Annexin V positive, PI negative; live cells = FITC-Annexin V negative, PI negative) and compared for untreated and treated samples. Graphical representation and statistical analysis was performed in GraphPad Prism 7 (GraphPad, La Jolla, USA).
# (§1) 3D Spheroid assays: A2780_control and A2780 FEN1_ KO as well as A2780cis_control and A2780cis FEN1_ KO cells were seeded at 4500 cells/cm2 density in ultra-low attachment 6-well plates (174932, Thermo Fisher Scientific) and cultured in 3D Tumorsphere Medium (C28070, PromoCell, UK) at 37°C in a 5% CO2 atmosphere. Cells were keep in culture for 7-10 days, toping up with fresh medium every two days until spheroids structures were formed.
# PEO4 cells = test: Cell cycle progression, PEO4; assay type: cell-based, human; settings: FEN1i plus cisplatin
# Experimental: (§2) with ice cold PBS and fixed in 70% ethanol for 1h at -20°C. After removal of the fixative solution by centrifugation, cells were stained with 2 µg/ml of phospho-Histone (γH2AX) Ser139 (16202A, Millipore, UK) to detect DSBs.
# (§3) Cell cycle progression: Cells were treated with 20 µg/ml RNase A (12091021, Invitrogen) and then 10 µg/ml Propidium Iodide (P4170, Sigma Aldrich) was added to determine the cell cycle distribution. The samples were analysed on a Beckman-Coulter FC500 flow cytometer using a 488nm laser for excitation and emission data for PI collected using a 620nm bandpass filter (FL3) and a 525nm bandpass filter (FL1) for FITC-anti-phospho-Histone H2A.X. […]
# (§4) Graphical representation and statistical analysis was performed in GraphPad Prism 7 (GraphPad, La Jolla, USA).
# as §1
# A2780cis cells [3] = test: Cell cycle progression, A2780cis; assay type: cell-based, human; settings: FEN1i plus cisplatin
# Experimental: as §2, §3, §4, §1
compound,measurement,setting,value
"Cc1csc2c1c(=O)n(O)c(=O)n2-c1ccccc1 [PTPD, 3-hydroxy-5-methyl-1-phenylthieno [2,3 d]pyrimidine-2,4(1H,3H)-dione]",DNA breaks (neutral COMET),A2780cis cells [1],substantially increased DNA breaks
same,IC50,FEN1,22 nM
same,sensitivity to FEN1 inhibitor,[2],did not observe any increased sensitivity
same,apoptosis,PEO1 cells,induction of apoptosis
same,cell cycle effect,PEO4 cells,G2/M cell cycle arrest
same,cell cycle effect,A2780cis cells [3],G2/M cell cycle arrest
